Experimental findings from patent US10968225B2, “Compounds and compositions for the treatment of cystic fibrosis” (Fondazione Istituto Italiano Di Tecnologia, priority 2017, dated 2021) are described below.

Usually EC50 stands for the concentration that produces a half-maximal response.

Bounds are passed on as bounds.

Assay type in all cases: cell-based
The target in one experiment is T1, mutant CFTR (Homo sapiens, UniProt P13569, DEL508-508).
T1 construct: expressed in transfected cells
Description: Fluorescence (HS-YFP) assay for CFTR activity, corrector assay. To be noted: CFBE41o- and FRT cells with stable expression of mutant CFTR, read-out: activity (EC50).

In experiment [1] the target is T2, F508del-CFTR (Homo sapiens, UniProt P13569, DEL508-508). The experiment can be described thus: Transepithelial electrical conductance (TEEC) in FRT cells. The arrangement: expressed in transfected cells; host or cells: FRT cells. To be noted: compounds tested at 5.0 µM; FRT cells expressing F508del-CFTR; 24 hrs incubation; forskolin and genistein stimulation minus PPQ-102 block. As to the method: Transepithelial Electrical Conductance (TEEC)
FRT cells expressing F508del-CFTR were plated on HTS Transwell-24 well permeable supports (Code 3379, Corning Life Sciences) at a density of 200,000 cells/well. After six days, cells were incubated for 24 hrs with test correctors, vehicle, or VX-809. Compounds were dissolved in both basolateral (800 μL) and apical (300 μL) culture medium. After treatment, the culture medium was removed and replaced on both sides with a saline solution containing (in mM): 130 NaCl, 2.7 KCl, 1.5 KH2PO4, 1 CaCl2, 0.5 MgCl2, 10 glucose, 10 Na-Hepes (pH 7.4). The basolateral and apical side received 800 μL and 100 μL, respectively. The 24-well tray with cells was placed on a block heater (SBH 130D, Stuart) to keep the temperature at 37° C. during the entire experiment. After 10 min, the basal transepithelial electrical resistance (TEER) across each layer of FRT cells was measured with a STX100C electrode pair connected to an EVOM2 voltohmeter (World Precision Instruments). To stimulate F508del-CFTR, each well received (apical side) 50 μL of saline solution containing 60 μM forskolin and 150 μM genistein (final concentrations: 20 μM forskolin, 50 μM genistein). Forskolin was also pipetted in the basolateral medium to obtain the 20 μM concentration. After 10 min TEER was measured again in each well. To block F508del-CFTR function, the inhibitor PPQ-102 was used at the final concentration of 30 μM. To achieve the desired concentration, 75 μL of the apical solution in each well was replaced with an equal volume of saline solution containing 20 μM forskolin, 50 μM genistein, and 60 μM PPQ-102. After further 10 min, the transepithelial electrical resistance was measured. All values of TEER were converted to transepithelial electrical conductance (TEEC) using the formula TEEC=1/TEER. The parameter to indicate activity of F508del-CFTR in each well (ΔTEEC) was calculated from the difference in TEEC measured after maximal stimulation of F508del-CFTR with forskolin and genistein and after block with PPQ-102.
Corrector activities obtained on selected compounds tested at 5.0 µM (expressed as ΔTEEC values) are illustrated in table 2, wherein +: ΔTEEC<2000 µS; ++: 2000 µS<ΔTEEC<3000[…]S; +++: ΔTEEC>3000 µS.

For experiment [2], the target named is T2, F508del-CFTR. The experiment can be described thus: Short-circuit current recordings on human bronchial epithelial cells. The arrangement: Human bronchial epithelial (HBE) cells obtained from CF patients (F508del/F508del genotype); endogenous in cells; host or cells: primary human bronchial epithelial cells from CF patients, F508del/F508del. Conditions: compounds tested at 1.0 µM; HBE cells from CF patients (F508del/F508del); 24 hrs treatment; CPT-cAMP plus VX-770 minus CFTRinh-172. As to the method: Short-Circuit Current Recordings on Human Bronchial Epithelial Cells
Human bronchial epithelial (HBE) cells obtained from CF patients (F508del/F508del genotype) were plated on Snapwell inserts (Code 3801, Corning Life Sciences) at a density of 500,000 cells per insert. Cells were cultured for two weeks in a differentiating medium whose compositions has been previously described (Scudieri et al., J Physiol 590:6141-6155, 2012). For the first week, the medium was kept on both apical and basolateral sides of inserts (submerged condition). For the second week, the apical medium was removed (air-liquid condition, ALC). To test the activity of correctors, cells were treated for 24 hrs with compounds dissolved in the basolateral medium. After treatment, Snapwell inserts carrying differentiated bronchial epithelia were mounted in a vertical chamber resembling an Ussing system with internal fluid circulation. Both apical and basolateral hemichambers were filled with 5 mL of a Krebs bicarbonate solution containing (in mM): 126 NaCl, 0.38 KH2PO4, 2.13 K2HPO4, 1 MgSO4, 1 CaCl2, 24 NaHCO3, and 10 glucose. Both sides were continuously bubbled with a gas mixture containing 5% CO2-95% air and the temperature of the solution was kept at 37° C. The transepithelial voltage was short-circuited with a voltage-clamp (DVC-1000, World Precision Instruments) connected to the apical and basolateral chambers via Ag/AgCl electrodes and agar bridges (1 M KCl in 1% agar). The offset between voltage electrodes and the fluid resistance were canceled before experiments. The short-circuit current was recorded with a PowerLab 4/25 (ADInstruments) analogical to digital converter connected to a Macintosh computer. […] The difference between the current measured with CPT-cAMP plus potentiator and the current remaining after CFTRinh-172 treatment ([…]ICFTR) was taken as the parameter reflecting F508del-CFTR expression in the apical membrane.
Activities of selected compounds on HBE cells tested at 1.0 µM (expressed as […]ICFTR) are illustrated in table 3 wherein +: […]ICFTR<2.0 µA; ++: 2 μA<[…]ICFTR<3.0 μA; +++: […]ICFTR>3.0 µA.

T1 sequence (P13569 with tags, fused parts or gaps DEL508-508): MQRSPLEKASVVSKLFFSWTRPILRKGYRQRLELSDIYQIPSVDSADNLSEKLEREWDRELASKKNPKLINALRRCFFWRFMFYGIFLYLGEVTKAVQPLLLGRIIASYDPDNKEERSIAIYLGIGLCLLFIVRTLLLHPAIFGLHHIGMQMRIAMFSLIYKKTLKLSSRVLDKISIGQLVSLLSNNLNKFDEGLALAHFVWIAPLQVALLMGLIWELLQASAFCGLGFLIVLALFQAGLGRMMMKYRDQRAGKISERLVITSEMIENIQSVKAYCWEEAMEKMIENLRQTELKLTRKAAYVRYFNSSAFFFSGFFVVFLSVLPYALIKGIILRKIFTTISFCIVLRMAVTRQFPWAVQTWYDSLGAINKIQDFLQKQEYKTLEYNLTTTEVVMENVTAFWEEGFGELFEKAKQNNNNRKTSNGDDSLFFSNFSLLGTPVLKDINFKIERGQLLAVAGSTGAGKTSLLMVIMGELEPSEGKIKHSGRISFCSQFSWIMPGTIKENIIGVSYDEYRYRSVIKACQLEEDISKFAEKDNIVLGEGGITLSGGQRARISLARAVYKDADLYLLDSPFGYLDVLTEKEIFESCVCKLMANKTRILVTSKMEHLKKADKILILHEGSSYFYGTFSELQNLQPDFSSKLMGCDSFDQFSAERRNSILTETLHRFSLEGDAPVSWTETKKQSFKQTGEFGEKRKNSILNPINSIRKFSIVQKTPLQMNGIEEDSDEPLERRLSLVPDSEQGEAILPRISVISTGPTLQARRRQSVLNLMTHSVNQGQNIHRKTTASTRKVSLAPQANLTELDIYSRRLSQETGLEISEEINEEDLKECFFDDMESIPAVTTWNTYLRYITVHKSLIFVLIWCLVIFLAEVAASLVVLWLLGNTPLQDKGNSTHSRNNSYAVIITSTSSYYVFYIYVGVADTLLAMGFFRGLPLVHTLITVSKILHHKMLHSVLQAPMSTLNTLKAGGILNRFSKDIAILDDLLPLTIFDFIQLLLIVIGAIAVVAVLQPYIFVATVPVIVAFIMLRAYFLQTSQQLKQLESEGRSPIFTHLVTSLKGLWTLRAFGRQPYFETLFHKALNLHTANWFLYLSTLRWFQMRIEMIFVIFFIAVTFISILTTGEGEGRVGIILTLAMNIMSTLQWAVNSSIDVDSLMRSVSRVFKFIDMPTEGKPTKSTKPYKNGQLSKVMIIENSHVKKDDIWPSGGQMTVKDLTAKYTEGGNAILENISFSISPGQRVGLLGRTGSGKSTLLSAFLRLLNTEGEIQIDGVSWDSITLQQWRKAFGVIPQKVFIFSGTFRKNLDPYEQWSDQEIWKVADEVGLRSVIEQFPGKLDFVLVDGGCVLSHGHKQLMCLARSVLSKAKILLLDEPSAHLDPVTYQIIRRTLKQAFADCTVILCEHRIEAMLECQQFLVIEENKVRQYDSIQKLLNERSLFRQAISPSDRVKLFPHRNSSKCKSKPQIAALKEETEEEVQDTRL
T2 sequence (P13569 with tags, fused parts or gaps DEL508-508): as above

Regarding `CN(C(=O)c1cccc(-n2nc(C(F)(F)F)c3c2CC2CCC3N2C(=O)OC(C)(C)C)c1)c1ccc2c(c1)OCO2` (racemic) [Compound 018, tert-Butyl 1-(3-(benzo[d][1,3]dioxol-5-yl(methyl)carbamoyl)phenyl)-3-(trifluoromethyl)-1,4,5,6,7,8-hexahydro-4,7-epiminocyclohepta[c]pyrazole-9-carboxylate], the EC50 at mutant CFTR is under 1000 nM. On F508del-CFTR [1], the “Corrector activity (expressed as ΔTEEC values)” value is on record as “+++ (ΔTEEC>3000 µS)”. The “activity on HBE cells (expressed as […]ICFTR)” value (“activity on HBE cells” below) on F508del-CFTR [2] is “+++ ([…]ICFTR>3.0 µA)”.
For `CN1CCc2c(c(C(F)(F)F)nn2-c2cccc(C(=O)N(C)c3ccc4c(c3)OCO4)c2)C1` [Compound 003, N-(1,3-Benzodioxol-5-yl)-N-methyl-3-[5-methyl-3-(trifluoromethyl)-6,7-dihydro-4H-pyrazolo[4,3-c]pyridin-1-yl]benzamide] the same measures were under 1000 nM, “++ (2000 µS<ΔTEEC<3000[…]S)” and “++ (2 μA<[…]ICFTR<3.0 μA)”.
For `CN(C(=O)c1cccc(-n2nc(C(F)(F)F)c3c2CCN(C(=O)Nc2ccccc2)C3)c1)c1ccc2c(c1)OCO2` [Compound 010, 1-[3-[1,3-Benzodioxol-5-yl(methyl)carbamoyl]phenyl]-N-phenyl-3-(trifluoromethyl)-6,7-dihydro-4H-pyrazolo[4,3-c] pyridine-5-carboxamide] the same measures were under 1000 nM, “++ (2000 µS<ΔTEEC<3000[…]S)” and “++ (2 μA<[…]ICFTR<3.0 μA)”.
For `CN(C(=O)c1cccc(-n2nc(C(F)(F)F)c3c2CCN(C(=O)C(C)(C)C)C3)c1)c1ccc2c(c1)OCO2` [Compound 011, N-(1,3-Benzodioxol-5-yl)-3-[5-(2,2-dimethylpropanoyl)-3-(trifluoromethyl)-6,7-dihydro-4H-pyrazolo[4,3-c]pyridin-1-yl]-N-methyl-benzamide] the same measures were under 1000 nM, “++ (2000 µS<ΔTEEC<3000[…]S)” and “++ (2 μA<[…]ICFTR<3.0 μA)”.
Regarding `CN(C(=O)c1cccc(-n2nc(C(F)(F)F)c3c2CCN(Cc2ccccc2)C3)c1)c1ccc2c(c1)OCO2` [Compound 012, N-(1,3-Benzodioxol-5-yl)-3-[5-benzyl-3-(trifluoromethyl)-6,7-dihydro-4H-pyrazolo[4,3-c]pyridin-1-yl]-N-methyl-benzamide], the EC50 on mutant CFTR is under 1000 nM. Moreover, at F508del-CFTR [1], the “Corrector activity (expressed as ΔTEEC values)” value is “++ (2000 µS<ΔTEEC<3000[…]S)”. The “activity on HBE cells” value on F508del-CFTR [2] was “+ ([…]ICFTR<2.0 µA)”.
On the same counts, the results for `COC(=O)c1cccc(CN2CCc3c(c(C(F)(F)F)nn3-c3cccc(C(=O)N(C)c4ccc5c(c4)OCO5)c3)C2)c1` [Compound 020, Methyl 3-[[1-[3-[1,3-benzodioxol-5-yl(methyl)carbamoyl]phenyl]-3-(trifluoromethyl)-6,7-dihydro-4H-pyrazolo[4,3-c]pyridin-5-yl]methyl]benzoate] are under 1000 nM, “+++ (ΔTEEC>3000 µS)” and “++ (2 μA<[…]ICFTR<3.0 μA)”.
In the case of `CN(C(=O)c1cccc(-n2nc(C(F)(F)F)c3c2CCN(C2CCC2)C3)c1)c1ccc2c(c1)OCO2` [Compound 032, N-(1,3-Benzodioxol-5-yl)-3-[5-cyclobutyl-3-(trifluoromethyl)-6,7-dihydro-4H-pyrazolo[4,3-c]pyridin-1-yl]-N-methyl-benzamide], the EC50 on mutant CFTR was under 1000 nM. Further, on F508del-CFTR [1], the “Corrector activity (expressed as ΔTEEC values)” value is listed as “++ (2000 µS<ΔTEEC<3000[…]S)”. For the same molecule, the “activity on HBE cells” value on F508del-CFTR [2] is “++ (2 μA<[…]ICFTR<3.0 μA)”.
Take `CN(C(=O)c1cccc(-n2nc(C(F)(F)F)c3c2C(Oc2ccc(C(=O)O)cc2)COC3)c1)c1ccc2c(c1)OC(F)(F)O2` (stereo not drawn) [Compound 202, 4-[[1-[3-[(2,2-Difluoro-1,3-benzodioxol-5-yl)-methyl-carbamoyl]phenyl]-3-(trifluoromethyl)-6,7-dihydro-4H-pyrano[4,3-c]pyrazol-7-yl]oxy]benzoic acid]: the EC50 at mutant CFTR is under 1000 nM.
As to `O=C(O)c1ccc(OC2CCCc3c(C(F)(F)F)nn(-c4cccc(C(=O)Nc5ccc6c(c5)OC(F)(F)O6)c4)c32)cc1` (stereo not drawn) [Compound 253, 4-[[1-[3-[(2,2-Difluoro-1,3-benzodioxol-5-yl)carbamoyl]phenyl]-3-(trifluoromethyl)-4,5,6,7-tetrahydroindazol-7-yl]oxy]benzoic acid], on mutant CFTR, the 50% effective concentration (EC50) was over 2000 nM.
Same read-out and setting: for `CN1Cc2c(C(F)(F)F)nn(-c3cccc(C(=O)N(C)c4ccc5c(c4)OC(F)(F)O5)c3)c2C(Oc2ccc(C(=O)O)cc2)C1` (stereo not drawn) [Compound 274, Ammonium 4-[[1-[3-[(2,2-difluoro-1,3-benzodioxol-5-yl)-methyl-carbamoyl]phenyl]-5-methyl-3-(trifluoromethyl)-6,7-dihydro-4H-pyrazolo[4,3-c]pyridin-7-yl]oxy]benzoate] the value was under 1000 nM.
